Results on 13 compounds are retold here after US9969709B2, “Guanidinobenzoic acid ester compound” (Takeda Pharmaceutical Company Limited, priority 2013, dated 2018).

pIC50: −log10 of the molar value.

Test [1] deals with T1, human recombinant trypsin (rh-trypsin) (Homo sapiens, UniProt P07477).
T1 construct: purchased Wako Pure Chemical Industries, Ltd. 206-17171
Briefly: Trypsin inhibitory activity, human recombinant trypsin, BZiPAR fluorescent substrate. In kind it is biochemical. The conditions noted are these: 30 min at room temperature, read-out: r-h Trypsin inhibitory activity (IC50). How it is done:
(§1) 1. Confirmation of Trypsin Inhibitory Activity in Humans and Mice In the experiment, human recombinant trypsin (rh-trypsin; manufactured by Wako Pure Chemical Industries, Ltd.), cat. #206-17171) and mouse trypsin (m-trypsin; purified from the mouse small intestine contents by the present inventors) were used. The method for purifying m-trypsin from the contents of the mouse small intestine is shown below. The compound was dissolved in dimethyl sulfoxide (DMSO), and diluted to an arbitrary concentration (A). A was 100-fold diluted with a buffer (0.1 M Tris (pH 8.0), 0.15 M NaCl, 10 mM CaCl2, 0.05% Brij35) (B). The rh-trypsin was diluted with a buffer to 0.088 μg/mL, and for the m-trypsin, the purified fraction liquid was 50-fold diluted with the buffer (C). […] A BZiPAR solution (Rhodamine Reference Substrate) which is substrate for the trypsin enzyme was diluted with the buffer to […] (D). 5 μL of B, 5 μL of C, and 10 μL of D were added to a 384-well plate, and incubated at room temperature for 30 minutes. Fluorescent signals were detected at a maximum excitement (Ex)/fluorescent wavelength (Em)=497 nm/520 nm using a Tecan Safire Fluorometer. […] Based on the obtained inhibitory rates, the trypsin inhibitory activities (IC50 values, nM) were calculated from the non-linear regression.

Test [2] has as its system T2, mouse trypsin (m-trypsin).
T2 construct: mouse trypsin (m-trypsin)
Briefly: Trypsin inhibitory activity, mouse trypsin purified from small intestine contents, BZiPAR fluorescent substrate. In kind it is biochemical. The conditions noted are these: 30 min at room temperature.
Source text: 1. Confirmation of Trypsin Inhibitory Activity in Humans and Mice
In the experiment, human recombinant trypsin (rh-trypsin; manufactured by Wako Pure Chemical Industries, Ltd.), cat. #206-17171) and mouse trypsin (m-trypsin; purified from the mouse small intestine contents by the present inventors) were used. The method for purifying m-trypsin from the contents of the mouse small intestine is shown below.
The small intestine contents and the gastrointestinal tract obtained from 10 mice were homogenized in phosphate buffer saline (PBS) using Polytron, and subjected to centrifugation several times at 15,000×g for 10 minutes. The supernatant was mixed at 4° C. for 16 hours with a Benzamidine Sepharose 4 Fast Flow Resin (GE Healthcare: #17-5123-10). After washing the resin with PBS, m-trypsin was eluted with a glycine buffer (pH 3.0) to carry out purification. It was confirmed by Western blot analysis that the obtained purified fraction was recognized as an Anti-mouse Trypsin Antibody (Santa Cruz Biotechnology, Inc.: sc-67388). The method for measuring the trypsin inhibiting activity is shown below.
as §1, with “The” for “1. Confirmation of Trypsin Inhibitory Activity in Humans and Mice In the experiment, human recombinant trypsin (rh-trypsin; manufactured by Wako Pure Chemical Industries, Ltd.), cat. #206-17171) and mouse trypsin (m-trypsin; purified from the mouse small intestine contents by the present inventors) were used. The method for purifying m-trypsin from the contents of the mouse small intestine is shown below. The”

Test [3] concerns ICR mice. As to the kind of experiment: Test of increase in fecal protein concentration using mice. In kind it is in vivo, mouse. Conditions: Mus musculus, po, 9 h, 5 mg/kg oral, male ICR mice, feces collected 3 to 9 hours after feeding started, control group = 1; read-out: Fecal protein, Folds (vs. control). On the procedure:
2. Test of Increase in Fecal Protein Concentration Using Mice
For the experiment, 6-week old male ICR mice were used. The experiment was carried out in five mice per group. After fasting the mice for 15 hours, the control group was forcibly orally administered with a 0.5% methyl cellulose (MC) solution, and the test drug group was forcibly orally administered (5 mg/kg) with a solution or suspension obtained by dissolving or suspending the compound in the 0.5% MC solution. The fasting was stopped immediately thereafter, free feeding (CE-2) was started, and then the feces were collected from after 3 hours to after 9 hours, and weighed. All of the obtained feces were suspended in 6 mL of distilled water, and centrifuged at 1,940×g for 10 minutes. The protein concentration in the obtained supernatant was measured by a Bradford method, and the amount of the protein in 1 g of feces was calculated by dividing the protein concentration in the feces by the total weight of feces. Further, the efficacy was investigated from the ratio to the control group. For the compounds that were evaluated multiple times, the average values were calculated.
The results of the activities with an increase in Fecal Protein, assuming a value for the control group as 1, are shown in Table 2.

Test [4] relates to Wistar rats. As to the kind of experiment: Rat uninephrectomy doxorubicin (DXR)-induced nephropathy model (renal function reduced model). The test is classed as in vivo. The conditions noted are these: 10 mg/kg oral twice daily, week 3, vs control group. How it is done:
3. Test of Rat Uninephrectomy Doxorubicin (DXR)-Induced Nephropathy Model (Renal Function Reduced Model) Uninephrectomy was performed in the left kidney of 10-week old male Wistar rats, and one week later, DXR (5 mg/kg) was administered to the rats via the caudal vein to induce a nephropathy model. The experiment was carried out in ten rats per group. During the period of administering the compound, the rats were fed with diet only in daytime, while fasted in nighttime. A test compound (10 mg/kg) was suspended in a 0.5% methylcellulose (MC) solution from the day after the preparation of the model, and was forcibly orally administered twice (morning and night) daily. To each of a sham (normal) group and a control group, 0.5% MC was forcibly orally administered. At 1, 2, and 3 weeks after the start of administration of the test compound, 24-hour urine collection was each performed to measure the amount of the protein excretion in urine. Blood collection was performed after the end of the urine collection at week 3, and the concentration of creatinine in plasma was measured.

In general, pIC50 refers to the negative decadic logarithm of the IC50, by convention in mol/L. Regarding `N=C(N)Nc1ccc(C(=O)Oc2ccc3c(C(=O)N(CC(=O)O)[C@@H](Cc4ccccc4)C(=O)O)cccc3c2)cc1` [Example 40], the pIC50 in test [1] is 9.54; in test [2], 9.57. Moreover, the response vs control in vivo at 5 mg/kg in test [3] is 189%.
Regarding `N=C(N)Nc1ccc(C(=O)Oc2ccc3c(c2)CCC3CC(=O)N[C@@H](Cc2ccc(C(=O)O)cc2)C(=O)O)cc1` (some centres unmarked) [Example 53], the pIC50 is 9.27 in test [1] and 9.22 in test [2]. Moreover, in test [3], the response vs control in vivo at 5 mg/kg came to 164%.
`N=C(N)Nc1ccc(C(=O)Oc2ccc3c(C(=O)N(CC(=O)O)Cc4ccc(CC(=O)O)cc4)cccc3c2)cc1` [Example 17]: the pIC50 in test [1] is 9.66; in test [2], 9.57. In addition, the response vs control in vivo at 5 mg/kg in test [3] turned out to be 270%.
Take `Cl.N=C(N)Nc1ccc(C(=O)Oc2ccc3c(c2)CCCC3CC(=O)N(CC(=O)O)Cc2cccc(C(=O)O)c2)cc1` (centres unmarked) [Example 2, 3-{[({6-[(4-carbamimidamnidobenzoyl)oxy]-1,2,3,4-tetrahydronaphthalen-1-yl}acetyl)(carboxymethyl)amino]methyl}benzoic acid monohydrochloride]: in test [1], the negative-log IC50 (pIC50) was 9.40. This compound also had a pIC50 in test [2] of 9.29. Moreover, in test [4], the “inhibitory rate of the amount of protein excretion in urine” value is on record as “about 42%” and the “inhibitory rate of the creatinine concentration in plasma” value is given as “about 42%”. The response vs control in vivo at 5 mg/kg in test [3] worked out at 255%.
Turning to `N=C(N)Nc1ccc(C(=O)Oc2ccc3cc(C(=O)N[C@@H](Cc4ccc(C(=O)O)cc4)C(=O)O)ccc3c2)cc1` [Example 37], the pIC50 in test [1] was 9.62; in test [2] it was 9.74. In addition, the response vs control in vivo at 5 mg/kg in test [3] turned out to be 174%.
With `N=C(N)Nc1ccc(C(=O)Oc2ccc3c(c2)CCC3CC(=O)N(CC(=O)O)Cc2csc(C(=O)O)c2)cc1` (centres unmarked) [Example 49], the negative logarithm of the IC50 (pIC50) was 9.43 in test [1] and 9.35 in test [2]. Besides, the response vs control in vivo at 5 mg/kg in test [3] came out at 207%.
As to `N=C(N)Nc1ccc(C(=O)Oc2ccc3c(c2)CCC3CC(=O)N(CCC(=O)O)Cc2csc(C(=O)O)c2)cc1` (centres unmarked) [Example 50], the pIC50 in test [1] was 9.55; in test [2], 9.37. The response vs control in vivo at 5 mg/kg in test [3] stood at 156%.
For `N=C(N)Nc1ccc(C(=O)Oc2ccc3c(C(=O)N(CC(=O)O)Cc4csc(C(=O)O)c4)cccc3c2)cc1` [Example 57], in that order: 9.72, 9.42 and 225%.
For the compound `C[C@H](C(=O)O)N(Cc1csc(C(=O)O)c1)C(=O)c1csc2cc(OC(=O)c3ccc(NC(=N)N)cc3)ccc12` [Example 29], the negative-log IC50 (pIC50) in test [1] is 9.59; in test [2], 9.64. Besides, the response vs control in vivo at 5 mg/kg in test [3] was found to be 143%.
On to `N=C(N)Nc1ccc(C(=O)Oc2ccc3c(c2)CCC3CC(=O)N(CC(=O)O)[C@@H](Cc2ccccc2)C(=O)O)cc1` (some centres unmarked) [Example 46], for which the figures for the pIC50 in test [1] and in test [2] were 9.60 and 9.64, respectively. Besides, in test [3], the response vs control in vivo at 5 mg/kg is 184%.
For `N=C(N)Nc1ccc(C(=O)Oc2ccc3cc(C(=O)N(CC(=O)O)Cc4cccc(C(=O)O)c4)ccc3c2)cc1` [Example 14], in that order: 9.64, 9.59 and 179%.
Turning to `C[C@H](C(=O)O)N(Cc1csc(C(=O)O)c1)C(=O)c1cccc2cc(OC(=O)c3ccc(NC(=N)N)cc3)ccc12` [Example 18], the pIC50 was 9.54 in test [1] and 9.32 in test [2]. Besides, the response vs control in vivo at 5 mg/kg in test [3] is 218%.
The matching figures for `N=C(N)Nc1ccc(C(=O)Oc2ccc3c(c2)CCC3CC(=O)N(CC(=O)O)Cc2ccc(CC(=O)O)cc2)cc1` (centres unmarked) [Example 52]: 9.37, 9.26 and 178%.
